As usually defined, the IC50 is the point on the concentration scale where inhibition reaches its midpoint. Read a high IC50 as lower potency.

One assay deals with KARPAS-299. Description: cells. To be noted: Homo sapiens, KARPAS-299, 72 h.
The test system of assay [1] is A549. Briefly: cells. Conditions: Homo sapiens, A549, 72 h.
Description: Cytotoxicity against human A549 cells incubated for 72 hrs by MTT assay
The test system of assay [2] is BaF3. Description: cells. Conditions: Mus musculus, BaF3, 72 h.
For assay [3], the system named is A549. Description: cells. Conditions: Homo sapiens, A549, 72 h. This is another data set of the same source.
The test system of the next assay is HCC78. Description: cells. To be noted: Homo sapiens, HCC78, 72 h.
A further assay deals with NCI-H2228. Briefly: cells. To be noted: Homo sapiens, NCI-H2228, 72 h.
The subject of assay [4] is BaF3. Description: cells. Conditions: Mus musculus, BaF3, 72 h. The source holds these as a separate data set.
Description: Cytotoxicity against mouse BA/F3 cells incubated for 72 hrs by MTT assay
The target in assay [5] is ALK tyrosine kinase receptor (Homo sapiens, UniProt Q9UM73, G1202R).
Assay [6] addresses ALK tyrosine kinase receptor (Homo sapiens, UniProt Q9UM73).
Description: Inhibition of N-terminal GST-tagged human ALK cytoplasmic domain (1058 to 1620 residues) expressed in Baculovirus expression system using srctide as substrate incubated for 1 hr by mobility shift assay
Assay [7] deals with Proto-oncogene tyrosine-protein kinase ROS (Homo sapiens, UniProt P08922).
Description: Inhibition of N-terminal GST-tagged human ROS1 cytoplasmic domain (1883 to 2347 residues) expressed in Baculovirus expression system using IRS1 as substrate incubated for 1 hr by mobility shift assay
The target in assay [8] is ALK tyrosine kinase receptor (Homo sapiens, UniProt Q9UM73, L1196M).
Assay [9] deals with Epidermal growth factor receptor (Homo sapiens, UniProt P00533).
Sequence of Epidermal growth factor receptor (P00533 whole entry): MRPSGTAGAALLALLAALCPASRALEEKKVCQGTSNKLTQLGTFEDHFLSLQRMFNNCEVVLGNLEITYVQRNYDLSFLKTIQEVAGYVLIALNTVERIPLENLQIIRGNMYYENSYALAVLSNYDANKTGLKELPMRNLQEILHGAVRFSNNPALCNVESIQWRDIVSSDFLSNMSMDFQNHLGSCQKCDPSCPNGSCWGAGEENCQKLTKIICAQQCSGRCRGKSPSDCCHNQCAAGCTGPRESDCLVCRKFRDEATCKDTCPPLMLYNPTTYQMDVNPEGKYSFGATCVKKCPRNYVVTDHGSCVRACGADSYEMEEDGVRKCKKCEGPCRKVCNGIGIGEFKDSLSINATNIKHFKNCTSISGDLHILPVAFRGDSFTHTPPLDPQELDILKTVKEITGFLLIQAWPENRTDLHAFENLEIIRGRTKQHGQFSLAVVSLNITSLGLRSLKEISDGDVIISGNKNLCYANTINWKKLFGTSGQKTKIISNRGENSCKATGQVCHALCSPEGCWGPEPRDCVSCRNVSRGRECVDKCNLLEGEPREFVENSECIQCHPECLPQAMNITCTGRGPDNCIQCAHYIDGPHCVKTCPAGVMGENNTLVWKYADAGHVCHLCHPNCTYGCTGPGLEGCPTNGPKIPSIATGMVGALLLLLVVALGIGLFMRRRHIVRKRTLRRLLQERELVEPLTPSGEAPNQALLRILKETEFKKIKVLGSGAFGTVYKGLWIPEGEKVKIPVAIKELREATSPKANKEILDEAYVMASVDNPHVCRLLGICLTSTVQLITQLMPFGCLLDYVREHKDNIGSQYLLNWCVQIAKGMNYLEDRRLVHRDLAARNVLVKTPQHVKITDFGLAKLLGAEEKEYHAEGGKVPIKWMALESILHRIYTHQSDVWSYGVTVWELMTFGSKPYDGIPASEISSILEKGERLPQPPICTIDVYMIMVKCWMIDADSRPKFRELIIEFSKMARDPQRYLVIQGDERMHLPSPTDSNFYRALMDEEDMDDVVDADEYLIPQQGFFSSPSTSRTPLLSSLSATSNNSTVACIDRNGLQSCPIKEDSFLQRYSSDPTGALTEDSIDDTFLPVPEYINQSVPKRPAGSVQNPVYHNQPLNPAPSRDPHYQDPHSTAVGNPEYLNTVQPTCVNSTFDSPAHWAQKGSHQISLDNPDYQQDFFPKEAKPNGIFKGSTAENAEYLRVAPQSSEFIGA
Description: Inhibition of N-terminal GST-tagged human EGFR cytoplasmic domain (669 to 1210 residues) expressed in Baculovirus expression system using srctide as substrate incubated for 1 hr by mobility shift assay

Sequence of ALK tyrosine kinase receptor (Homo sapiens, UniProt Q9UM73) (Q9UM73 whole entry): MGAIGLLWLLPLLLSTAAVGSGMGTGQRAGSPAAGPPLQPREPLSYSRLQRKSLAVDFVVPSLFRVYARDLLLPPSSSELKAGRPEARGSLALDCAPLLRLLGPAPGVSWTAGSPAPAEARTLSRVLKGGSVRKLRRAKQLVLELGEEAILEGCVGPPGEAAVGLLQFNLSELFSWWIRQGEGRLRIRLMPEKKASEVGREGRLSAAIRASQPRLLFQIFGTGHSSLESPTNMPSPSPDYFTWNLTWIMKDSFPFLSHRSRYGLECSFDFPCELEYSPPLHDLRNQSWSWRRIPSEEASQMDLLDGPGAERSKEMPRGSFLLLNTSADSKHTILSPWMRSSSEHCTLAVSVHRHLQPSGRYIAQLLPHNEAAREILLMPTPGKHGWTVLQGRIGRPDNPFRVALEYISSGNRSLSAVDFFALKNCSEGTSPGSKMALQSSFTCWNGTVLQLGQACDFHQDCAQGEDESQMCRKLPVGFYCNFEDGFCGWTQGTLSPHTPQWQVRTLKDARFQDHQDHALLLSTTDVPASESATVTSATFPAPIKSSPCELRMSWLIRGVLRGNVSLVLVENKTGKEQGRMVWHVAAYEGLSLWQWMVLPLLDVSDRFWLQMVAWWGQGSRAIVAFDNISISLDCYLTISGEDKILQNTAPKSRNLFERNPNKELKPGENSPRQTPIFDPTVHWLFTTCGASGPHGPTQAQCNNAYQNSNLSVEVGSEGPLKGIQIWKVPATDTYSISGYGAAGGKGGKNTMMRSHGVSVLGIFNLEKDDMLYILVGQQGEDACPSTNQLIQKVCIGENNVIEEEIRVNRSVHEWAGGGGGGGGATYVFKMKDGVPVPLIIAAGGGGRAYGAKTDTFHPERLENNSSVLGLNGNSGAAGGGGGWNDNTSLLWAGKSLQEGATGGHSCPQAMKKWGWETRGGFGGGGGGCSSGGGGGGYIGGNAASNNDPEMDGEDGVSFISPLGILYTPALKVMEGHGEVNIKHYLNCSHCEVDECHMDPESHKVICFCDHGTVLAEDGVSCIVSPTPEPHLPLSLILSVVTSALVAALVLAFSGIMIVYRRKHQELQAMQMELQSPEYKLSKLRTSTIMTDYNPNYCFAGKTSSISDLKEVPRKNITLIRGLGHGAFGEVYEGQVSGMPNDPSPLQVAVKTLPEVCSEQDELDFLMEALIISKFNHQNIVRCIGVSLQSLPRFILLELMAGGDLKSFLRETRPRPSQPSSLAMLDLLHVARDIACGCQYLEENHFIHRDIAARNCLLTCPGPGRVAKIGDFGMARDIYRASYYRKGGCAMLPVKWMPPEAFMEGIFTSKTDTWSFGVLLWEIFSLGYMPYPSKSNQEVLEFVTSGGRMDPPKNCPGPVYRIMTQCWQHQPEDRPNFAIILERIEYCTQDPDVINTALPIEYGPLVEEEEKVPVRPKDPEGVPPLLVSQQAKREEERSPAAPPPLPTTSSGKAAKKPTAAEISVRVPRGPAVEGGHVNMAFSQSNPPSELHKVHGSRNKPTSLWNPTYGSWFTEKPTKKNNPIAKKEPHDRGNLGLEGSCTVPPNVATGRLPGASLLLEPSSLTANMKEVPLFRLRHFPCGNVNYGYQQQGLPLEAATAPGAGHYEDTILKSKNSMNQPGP
Sequence of Proto-oncogene tyrosine-protein kinase ROS (P08922 whole entry): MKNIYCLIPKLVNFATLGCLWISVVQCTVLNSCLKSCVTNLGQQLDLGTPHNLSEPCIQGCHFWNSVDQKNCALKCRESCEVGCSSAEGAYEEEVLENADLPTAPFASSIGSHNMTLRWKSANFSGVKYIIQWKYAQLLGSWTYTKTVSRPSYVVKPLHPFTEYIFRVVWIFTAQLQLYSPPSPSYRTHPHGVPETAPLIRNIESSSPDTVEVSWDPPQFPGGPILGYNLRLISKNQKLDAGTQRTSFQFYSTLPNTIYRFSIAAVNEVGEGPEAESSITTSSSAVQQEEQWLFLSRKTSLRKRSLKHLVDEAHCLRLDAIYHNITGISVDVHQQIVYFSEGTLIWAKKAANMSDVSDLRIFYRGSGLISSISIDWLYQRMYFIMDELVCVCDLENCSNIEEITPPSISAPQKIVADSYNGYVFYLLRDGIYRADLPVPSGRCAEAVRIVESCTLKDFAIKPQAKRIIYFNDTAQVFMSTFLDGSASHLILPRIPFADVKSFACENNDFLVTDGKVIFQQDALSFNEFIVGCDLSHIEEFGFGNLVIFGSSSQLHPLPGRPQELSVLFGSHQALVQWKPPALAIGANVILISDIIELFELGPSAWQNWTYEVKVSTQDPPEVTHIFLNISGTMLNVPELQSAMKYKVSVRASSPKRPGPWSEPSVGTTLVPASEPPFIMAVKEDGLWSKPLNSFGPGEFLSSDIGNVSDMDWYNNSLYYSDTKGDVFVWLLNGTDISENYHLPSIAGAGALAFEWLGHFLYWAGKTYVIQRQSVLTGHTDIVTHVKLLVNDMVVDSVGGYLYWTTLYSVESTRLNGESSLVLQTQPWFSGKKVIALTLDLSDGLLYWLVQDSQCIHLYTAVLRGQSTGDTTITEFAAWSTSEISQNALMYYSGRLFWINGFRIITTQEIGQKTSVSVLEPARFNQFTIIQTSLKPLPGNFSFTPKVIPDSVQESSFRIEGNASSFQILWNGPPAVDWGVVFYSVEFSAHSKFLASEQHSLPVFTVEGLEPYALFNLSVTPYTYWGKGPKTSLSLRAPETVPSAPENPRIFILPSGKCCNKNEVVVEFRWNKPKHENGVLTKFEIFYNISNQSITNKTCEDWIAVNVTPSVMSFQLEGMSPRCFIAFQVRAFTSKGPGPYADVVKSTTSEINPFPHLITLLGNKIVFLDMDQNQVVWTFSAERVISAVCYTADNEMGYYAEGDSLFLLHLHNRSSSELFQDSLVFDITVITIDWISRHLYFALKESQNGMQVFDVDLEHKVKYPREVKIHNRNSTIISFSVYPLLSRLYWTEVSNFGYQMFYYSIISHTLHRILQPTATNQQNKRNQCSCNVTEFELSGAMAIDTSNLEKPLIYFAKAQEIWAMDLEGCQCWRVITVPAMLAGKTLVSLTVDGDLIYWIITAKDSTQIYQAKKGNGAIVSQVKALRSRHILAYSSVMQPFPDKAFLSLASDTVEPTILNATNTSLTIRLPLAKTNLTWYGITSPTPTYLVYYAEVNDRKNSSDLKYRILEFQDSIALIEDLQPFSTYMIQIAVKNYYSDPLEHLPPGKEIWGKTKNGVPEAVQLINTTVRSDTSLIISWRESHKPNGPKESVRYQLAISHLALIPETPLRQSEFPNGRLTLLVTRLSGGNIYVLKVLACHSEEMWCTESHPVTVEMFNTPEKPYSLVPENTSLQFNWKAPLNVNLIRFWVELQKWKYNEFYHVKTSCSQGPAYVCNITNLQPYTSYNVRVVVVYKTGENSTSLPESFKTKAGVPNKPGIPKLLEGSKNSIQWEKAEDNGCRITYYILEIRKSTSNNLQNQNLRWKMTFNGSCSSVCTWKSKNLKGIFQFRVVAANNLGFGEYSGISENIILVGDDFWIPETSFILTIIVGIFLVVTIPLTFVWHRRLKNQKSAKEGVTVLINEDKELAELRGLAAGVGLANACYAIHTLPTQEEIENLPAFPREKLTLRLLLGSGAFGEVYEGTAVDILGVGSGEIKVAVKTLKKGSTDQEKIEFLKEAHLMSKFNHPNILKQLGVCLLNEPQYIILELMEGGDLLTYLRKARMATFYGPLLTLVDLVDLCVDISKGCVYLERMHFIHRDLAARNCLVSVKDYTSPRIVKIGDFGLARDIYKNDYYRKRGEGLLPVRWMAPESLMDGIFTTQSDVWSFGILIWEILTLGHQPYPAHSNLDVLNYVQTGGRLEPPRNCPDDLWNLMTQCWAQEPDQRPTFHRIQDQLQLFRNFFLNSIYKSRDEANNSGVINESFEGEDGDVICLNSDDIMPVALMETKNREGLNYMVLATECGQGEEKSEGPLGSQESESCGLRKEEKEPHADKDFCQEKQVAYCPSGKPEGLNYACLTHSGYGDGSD
Description for HCC78: Cytotoxicity against human HCC78 cells incubated for 72 hrs by MTT assay
Description for KARPAS-299: Cytotoxicity against human KARPAS299 cells incubated for 72 hrs by MTT assay
Description for NCI-H2228: Cytotoxicity against human NCI-H2228 cells incubated for 72 hrs by MTT assay

With `COc1cc(N2CCN(CC(=O)N3CCC(C)CC3)C2=O)ccc1Nc1ncc(Cl)c(Nc2ccccc2S(=O)(=O)C(C)C)n1`, the IC50 was 280 nM in the assay on KARPAS-299; above 5000 nM in the assay on A549 [1]; above 5000 nM in the assay with BaF3 [2]; 2360 nM with A549 [3]; 870 nM in the assay with HCC78; 350 nM with NCI-H2228. Besides, the 50% inhibitory concentration (IC50) in the assay on BaF3 [4] was above 5000 nM.
On to `COCCN1CCN(c2ccc(Nc3ncc(Cl)c(Nc4ccccc4S(=O)(=O)C(C)C)n3)c(OC)c2)C1=O`, for which the IC50 in the assay with KARPAS-299 was determined as 570 nM; in the assay on A549 [1], 3110 nM; in the assay with BaF3 [2], 3510 nM; with A549 [3] it was 1150 nM; in the assay with HCC78, 410 nM; with NCI-H2228 it was 870 nM. The same compound displayed a concentration for half-maximal inhibition (IC50) in the assay with BaF3 [4] above 5000 nM.
Consider `CNC(=O)CN1CCN(c2ccc(Nc3ncc(Cl)c(Nc4ccccc4S(=O)(=O)C(C)C)n3)c(OC)c2)C1=O`, for which the IC50 with KARPAS-299 was 760 nM; in the assay with A549 [1], above 5000 nM; in the assay on BaF3 [2], 1710 nM; with A549 [3], 140 nM; in the assay on HCC78, 610 nM; with NCI-H2228, 670 nM. In addition, the IC50 in the assay with BaF3 [4] was above 5000 nM.
In the case of `COc1cc(N2CCN(C(=O)N(C)C)C2=O)ccc1Nc1ncc(Cl)c(Nc2ccccc2S(=O)(=O)C(C)C)n1`, the half-maximal inhibitory concentration (IC50) was 250 nM with KARPAS-299; 2590 nM with A549 [1]; above 5000 nM in the assay with BaF3 [2]; 1410 nM in the assay with A549 [3]; 670 nM with HCC78; 610 nM in the assay on NCI-H2228. The compound further yielded a half-inhibitory concentration (IC50) in the assay with BaF3 [4] above 5000 nM.
`COc1cc(N2CCN(C[C@@H]3CO3)C2=O)ccc1Nc1ncc(Cl)c(Nc2ccccc2S(=O)(=O)C(C)C)n1`: the IC50 was 170 nM in the assay with KARPAS-299; above 5000 nM in the assay with A549 [1]; above 5000 nM in the assay on BaF3 [2]; 2820 nM in the assay on A549 [3]; 570 nM with HCC78; 320 nM in the assay on NCI-H2228. For the same compound, in the assay on BaF3 [4], the 50% inhibitory concentration (IC50) is above 5000 nM.
As to `COc1cc(N2CCN(CC(=O)NC3CC3)C2=O)ccc1Nc1ncc(Cl)c(Nc2ccccc2S(=O)(=O)C(C)C)n1`, the IC50 is 270 nM with KARPAS-299; above 5000 nM in the assay on A549 [1]; above 5000 nM with BaF3 [2]; 1740 nM with A549 [3]; 510 nM with HCC78; 910 nM with NCI-H2228. In the assay on BaF3 [4], this compound registered an IC50 above 5000 nM.
`COc1cc(N2CCN(CC(N)=O)C2=O)ccc1Nc1ncc(Cl)c(Nc2ccccc2S(=O)(=O)C(C)C)n1`: the concentration for half-maximal inhibition (IC50) in assay [5] was 8.5 nM; in assay [6] it was 2.7 nM; in the assay on KARPAS-299, 98 nM; with A549 [1], above 5000 nM; in the assay with BaF3 [2], 79 nM; in the assay with A549 [3], 110 nM. Besides, the IC50 with HCC78 is 870 nM; in the assay with NCI-H2228, 370 nM; in [7], 0.76 nM; in assay [8], 0.95 nM; in assay [9], above 1000 nM; with BaF3 [4] it was 1690 nM.
As for `CCN(CC)C(=O)CN1CCN(c2ccc(Nc3ncc(Cl)c(Nc4ccccc4S(=O)(=O)C(C)C)n3)c(OC)c2)C1=O`, the half-inhibitory concentration (IC50) is 170 nM in the assay on KARPAS-299; above 5000 nM in the assay with A549 [1]; above 5000 nM in the assay with BaF3 [2]; 1490 nM with A549 [3]; 310 nM in the assay with HCC78; 870 nM with NCI-H2228. Moreover, the concentration for half-maximal inhibition (IC50) in the assay with BaF3 [4] is above 5000 nM.
In the case of `COc1cc(N2CCN(CC(=O)NCCO)C2=O)ccc1Nc1ncc(Cl)c(Nc2ccccc2S(=O)(=O)C(C)C)n1`, the half-maximal inhibitory concentration (IC50) in the assay on KARPAS-299 is 110 nM; with A549 [1], above 5000 nM; in the assay with BaF3 [2] it was 3220 nM; in the assay with A549 [3], 1830 nM; in the assay with HCC78 it was 69 nM; in the assay on NCI-H2228 it was 420 nM. Besides, the IC50 with BaF3 [4] was above 5000 nM.
With `CCOC(=O)CN1CCN(c2ccc(Nc3ncc(Cl)c(Nc4ccccc4S(=O)(=O)C(C)C)n3)c(OC)c2)C1=O`, the IC50 was 760 nM in the assay with KARPAS-299; above 5000 nM in the assay on A549 [1]; 3450 nM with BaF3 [2]; 2110 nM in the assay with A549 [3]; 1570 nM in the assay with HCC78; 1530 nM in the assay on NCI-H2228. For the same compound, in the assay with BaF3 [4], the IC50 was above 5000 nM.
`COc1cc(N2CCN(CC(=O)N3CCC[C@H]3CO)C2=O)ccc1Nc1ncc(Cl)c(Nc2ccccc2S(=O)(=O)C(C)C)n1`: the IC50 in the assay with KARPAS-299 amounted to 140 nM; with A549 [1] it was 2450 nM; with BaF3 [2], 1190 nM; in the assay with A549 [3], 1160 nM; in the assay on HCC78, 56 nM; in the assay with NCI-H2228, 170 nM. The compound also displayed a half-inhibitory concentration (IC50) with BaF3 [4] above 5000 nM.
Regarding `COc1cc(N2CCN(C(=O)C3CCOCC3)C2=O)ccc1Nc1ncc(Cl)c(Nc2ccccc2S(=O)(=O)C(C)C)n1`, the IC50 with KARPAS-299 is 310 nM; in the assay with A549 [1], above 5000 nM; in the assay with BaF3 [2], above 5000 nM; in the assay with A549 [3], above 5000 nM; with HCC78 it was 690 nM; in the assay on NCI-H2228, 920 nM. The compound further displayed a 50% inhibitory concentration (IC50) with BaF3 [4] above 5000 nM.
Consider `COc1cc(N2CCN(CCCN)C2=O)ccc1Nc1ncc(Cl)c(Nc2ccccc2S(=O)(=O)C(C)C)n1`, for which the IC50 in assay [5] was 11.9 nM; in assay [6], 4.7 nM; in the assay with KARPAS-299, 170 nM; in the assay with A549 [1], above 5000 nM; in the assay with BaF3 [2], 94 nM; with A549 [3] it was 1980 nM. Also, the concentration for half-maximal inhibition (IC50) is 160 nM in the assay with HCC78; 530 nM in the assay with NCI-H2228; 5.3 nM in assay [7]; 5.1 nM in [8]; above 1000 nM in [9]; above 5000 nM in the assay with BaF3 [4].
In the case of `COc1cc(N2CCN(CC(=O)N3CC(O)C3)C2=O)ccc1Nc1ncc(Cl)c(Nc2ccccc2S(=O)(=O)C(C)C)n1`, the IC50 was 130 nM in the assay with KARPAS-299; 2970 nM in the assay on A549 [1]; 4280 nM with BaF3 [2]; 1020 nM with A549 [3]; 110 nM with HCC78; 320 nM in the assay on NCI-H2228. The IC50 in the assay with BaF3 [4] was above 5000 nM.
On to `COc1cc(N2CCN(CC(=O)NCC#N)C2=O)ccc1Nc1ncc(Cl)c(Nc2ccccc2S(=O)(=O)C(C)C)n1`, for which the IC50 in the assay on KARPAS-299 came to 150 nM; with A549 [1] it was 4120 nM; with BaF3 [2] it was 2790 nM; in the assay on A549 [3], 2410 nM; in the assay with HCC78, 77 nM; in the assay on NCI-H2228, 230 nM. In addition, the IC50 in the assay with BaF3 [4] is above 5000 nM.
As for `COc1cc(N2CCN(CC(=O)N3CCSCC3)C2=O)ccc1Nc1ncc(Cl)c(Nc2ccccc2S(=O)(=O)C(C)C)n1`, the half-maximal inhibitory concentration (IC50) in the assay on KARPAS-299 was 370 nM; in the assay with A549 [1], above 5000 nM; in the assay with BaF3 [2], 1960 nM; in the assay with A549 [3], 1270 nM; in the assay on HCC78, 530 nM; with NCI-H2228, 270 nM. The IC50 in the assay with BaF3 [4] was above 5000 nM.
`COc1cc(N2CCN(CCC#N)C2=O)ccc1Nc1ncc(Cl)c(Nc2ccccc2S(=O)(=O)C(C)C)n1`: the IC50 was 250 nM in the assay on KARPAS-299; above 5000 nM with A549 [1]; 2780 nM in the assay with BaF3 [2]; 2370 nM in the assay with A549 [3]; 470 nM in the assay with HCC78; 1130 nM in the assay on NCI-H2228. In the assay with BaF3 [4], the IC50 was above 5000 nM.
As for `COc1cc(N2CCN(CC(=O)N3CCCC3)C2=O)ccc1Nc1ncc(Cl)c(Nc2ccccc2S(=O)(=O)C(C)C)n1`, the half-maximal inhibitory concentration (IC50) in the assay with KARPAS-299 is 390 nM; in the assay on A549 [1] it was 3100 nM; in the assay on BaF3 [2] it was 2490 nM; in the assay on A549 [3], 1100 nM; in the assay on HCC78, 270 nM; with NCI-H2228, 150 nM. The same compound returned an IC50 in the assay with BaF3 [4] of 4500 nM.
Take `COc1cc(N2CCN(CC(=O)N3CCCCC3)C2=O)ccc1Nc1ncc(Cl)c(Nc2ccccc2S(=O)(=O)C(C)C)n1`: the 50% inhibitory concentration (IC50) in the assay with KARPAS-299 is 150 nM; with A549 [1], above 5000 nM; in the assay on BaF3 [2], 2970 nM; in the assay with A549 [3], 1070 nM; in the assay with HCC78, 490 nM; in the assay on NCI-H2228, 530 nM. Moreover, in the assay with BaF3 [4], the half-inhibitory concentration (IC50) was above 5000 nM.
`COc1cc(N2CCN(CC(=O)O)C2=O)ccc1Nc1ncc(Cl)c(Nc2ccccc2S(=O)(=O)C(C)C)n1`: the IC50 with KARPAS-299 was 3270 nM; with A549 [1], above 5000 nM; in the assay on BaF3 [2], above 5000 nM; with A549 [3], above 5000 nM; in the assay with HCC78 it was 2510 nM; in the assay with NCI-H2228, 1710 nM. Besides, the 50% inhibitory concentration (IC50) in the assay on BaF3 [4] is above 5000 nM.
`COc1cc(N2CCN(CC(=O)N3CCN(CCO)CC3)C2=O)ccc1Nc1ncc(Cl)c(Nc2ccccc2S(=O)(=O)C(C)C)n1`: the half-inhibitory concentration (IC50) in the assay on KARPAS-299 came to 110 nM; in the assay with A549 [1] it was 4590 nM; with BaF3 [2] it was 160 nM; with A549 [3], 2440 nM; in the assay on HCC78, 390 nM; in the assay on NCI-H2228, 120 nM. The same compound came in with a 50% inhibitory concentration (IC50) in the assay with BaF3 [4] above 5000 nM.
As to `COc1cc(N2CCN(CC(=O)N3CCOCC3)C2=O)ccc1Nc1ncc(Cl)c(Nc2ccccc2S(=O)(=O)C(C)C)n1`, the IC50 was 760 nM in the assay with KARPAS-299; above 5000 nM in the assay with A549 [1]; 2060 nM in the assay on BaF3 [2]; 970 nM in the assay on A549 [3]; 210 nM with HCC78; 570 nM in the assay on NCI-H2228. Also, the IC50 with BaF3 [4] was above 5000 nM.
Take `COc1cc(N2CCN(CCN3CCOCC3)C2=O)ccc1Nc1ncc(Cl)c(Nc2ccccc2S(=O)(=O)C(C)C)n1`: the 50% inhibitory concentration (IC50) with KARPAS-299 is 390 nM; in the assay with A549 [1], above 5000 nM; in the assay on BaF3 [2], 110 nM; in the assay on A549 [3], 2170 nM; in the assay on HCC78, 730 nM; with NCI-H2228, 750 nM. The compound further gave a half-inhibitory concentration (IC50) with BaF3 [4] above 5000 nM.
